Assay results as given in patent US5958445A, “Oral Formulations of S(+)-etodolac” (priority 1998, dated 1999).
In brackets after ≈: the same amount, converted by molar mass. Read-outs that look alike come from different tables or passages of the source. One block for each compound: values may come before it.

Tests used:
[1] = physchem; type: physicochemical
Method: Equilibrium solubility data for S(+)-etodolac based on pH was determined by placing excess amounts of the S(+)-etodolac and about 5 mL of the dissolution medium in screw-capped vials which were covered with aluminum foil and then tumbled in a 25° C. water bath for 3 days. Slurries were filtered through […] Gelman disposable filters. Filtrates were appropriately diluted with their dissolution medium and analyzed by a Cary 210 UV-VIS spectrophotometer at 278 nm.
The dissolution media used for the pH-solubility profile and ionic strength effect were HCl, HAc--NaAc, KH2 PO4 --NaOH, K2 CO3 --KHCO3, H3 BO3 --NaOH, and NaOH solutions, where the ionic strengths of media were adjusted to be 0.1 by the addition of NaCl. Those solvent systems used for cosolvent solubilization were various ratios of PEG 400, ethanol, triethanolamine (TEA), and dimethylacetamide (DMA) to aqueous solutions. pH values of the slurries were measured before and after equilibrium.

[2] = tested on: acute pain; settings: cited from earlier work
[3] = Physicians' Desk Reference, 1995; cited from earlier work
[4] = tested on: animal models; settings: in vivo; cited from earlier work
[5] = in vivo; cited from earlier work
[6] = Solubility in words (Physicians' Desk Reference and description); type: physicochemical; settings: acid form
[7] = J. Med. Chem. 1983, 26, 1778-1780; cited from earlier work
[8] = 20% ethanol, organic solvent or mixture
[9] = 20% peg 400, organic solvent or mixture
[10] = 40% ethanol, organic solvent or mixture
[11] = 40% peg 400, organic solvent or mixture
[12] = 60% ethanol, organic solvent or mixture
[13] = 60% peg 400, organic solvent or mixture
[14] = 80% ethanol, organic solvent or mixture
[15] = 80% peg 400, organic solvent or mixture
[16] = 100% ethanol, organic solvent or mixture
[17] = 100% triethanolamine, organic solvent or mixture

- solubility at 72 h ([1]; 2% triethanolamine): 37.7 mg/mL (≈ 131 mM)
- solubility at 72 h ([1]; 4% triethanolamine): 75.9 mg/mL (≈ 264 mM)
- solubility at 72 h ([1]; 6% triethanolamine): 122 mg/mL (≈ 423 mM)
- solubility at 72 h ([1]; 8% triethanolamine): 226 mg/mL (≈ 785 mM)
- solubility at 72 h ([1]; 10% dimethylacetamide): 0.468 mg/mL (≈ 1.63 mM)
- solubility at 72 h ([1]; 10% triethanolamine): 294 mg/mL (≈ 1020 mM)
- solubility at 72 h ([1]; 20% dimethylacetamide): 0.956 mg/mL (≈ 3.33 mM)
- solubility at 72 h [1, 8]: 0.279 mg/mL (≈ 0.971 mM)
- solubility at 72 h [1, 9]: 0.905 mg/mL (≈ 3.15 mM)
- solubility at 72 h ([1]; 30% dimethylacetamide): 2.99 mg/mL (≈ 10.4 mM)
- solubility at 72 h ([1]; 40% dimethylacetamide): 7.28 mg/mL (≈ 25.3 mM)
- solubility at 72 h [1, 10]: 2.33 mg/mL (≈ 8.13 mM)
- solubility at 72 h [1, 11]: 3.58 mg/mL (≈ 12.5 mM)
- solubility at 72 h ([1]; 50% dimethylacetamide): 34.9 mg/mL (≈ 122 mM)
- solubility at 72 h ([1]; 60% dimethylacetamide): 52.1 mg/mL (≈ 181 mM)
- solubility at 72 h [1, 12]: 23.8 mg/mL (≈ 82.7 mM)
- solubility at 72 h [1, 13]: 20.2 mg/mL (≈ 70.3 mM)
- solubility at 72 h ([1]; 80% dimethylacetamide): 2630 mg/mL (≈ 9160 mM)
- solubility at 72 h [1, 14]: 102 mg/mL (≈ 354 mM)
- solubility at 72 h [1, 15]: 152 mg/mL (≈ 531 mM)
- Solubility ([1]; 100% dimethylacetamide, 72 h): 4734. mg/mL
- solubility at 72 h [1, 16]: 234 mg/mL (≈ 815 mM)
- solubility at 72 h ([1]; 100% peg 400, organic solvent or mixture): 1730 mg/mL (≈ 6030 mM)
- solubility at 72 h [1, 17]: 102 mg/mL (≈ 355 mM)
SMILES: CCc1cccc2c3c([nH]c12)C(CC)(CC(=O)O)OCC3 (racemic) [etodolac, (±) 1,8-diethyl-1,3,4,9-tetrahydropyrano[3,4-b]indole-1-acetic acid]
- symptom relief for acute pain lasting ([2]; single dose of 200 mg): 4 to 5 h
- symptom relief for acute pain lasting ([2]; single dose of 400 mg): 5 to 6 h
- solubility in alcohols, chloroform, dimethyl sulfoxide and aqueous polyethylene glycol [3]: soluble
- solubility in water [3]: insoluble
- activities in animal models [4]: exhibits anti-inflammatory, analgesic, and antipyretic activities

SMILES: CCc1cccc2c3c([nH]c12)[C@@](CC)(CC(=O)O)OCC3 [R(-) etodolac]
- certain purported adverse effects associated with the racemic mixture [5]: substantially reduces

- solubility at 72 h ([1]; 0.001 n hcl, pH 3.24): 0.073 mg/mL (≈ 0.254 mM)
- solubility at 72 h ([1]; 0.001 n naoh, pH 8.5): 32.3 mg/mL (≈ 112 mM)
- solubility at 72 h ([1]; 0.01 m phosphate buffer, pH 6.4, aqueous buffer): 4.56 mg/mL (≈ 15.9 mM)
- solubility at 72 h ([1]; 0.01 m phosphate buffer, pH 6.63, aqueous buffer): 7.81 mg/mL (≈ 27.2 mM)
- solubility at 72 h ([1]; 0.04 m borate buffer, pH 8.61, aqueous buffer): 11.6 mg/mL (≈ 40.4 mM)
- solubility at 72 h ([1]; 0.04 m phosphate buffer, pH 8.59, aqueous buffer): 15.3 mg/mL (≈ 53.1 mM)
- solubility at 72 h ([1]; 0.1 m acetate buffer, pH 4.03, aqueous buffer): 0.093 mg/mL (≈ 0.324 mM)
- solubility at 72 h ([1]; 0.1 m acetate buffer, pH 4.41, aqueous buffer): 0.12 mg/mL (≈ 0.418 mM)
- solubility at 72 h ([1]; 0.1 m phosphate buffer, pH 4.63, aqueous buffer): 0.193 mg/mL (≈ 0.672 mM)
- solubility at 72 h ([1]; 0.1 m phosphate buffer, pH 4.98, aqueous buffer): 0.263 mg/mL (≈ 0.915 mM)
- solubility at 72 h ([1]; 0.1 m phosphate buffer, pH 5.82, aqueous buffer): 1.21 mg/mL (≈ 4.22 mM)
- solubility at 72 h ([1]; 0.1 n hcl, pH 1.14): 0.08 mg/mL (≈ 0.278 mM)
- solubility at 72 h ([1]; 0.1 n hcl, pH 2.13): 0.08 mg/mL (≈ 0.278 mM)
- solubility at 72 h ([1]; 0.1 n naoh, pH 7.15): 29.4 mg/mL (≈ 102 mM)
- solubility at 72 h ([1]; 0.2 n naoh, pH 7.3): 58.8 mg/mL (≈ 205 mM)
- solubility at 72 h ([1]; 2% triethanolamine): 39.4 mg/mL (≈ 137 mM)
- solubility at 72 h ([1]; 4% triethanolamine): 77.8 mg/mL (≈ 271 mM)
- solubility at 72 h ([1]; 6% triethanolamine): 126 mg/mL (≈ 439 mM)
- solubility at 72 h ([1]; 8% triethanolamine): 235 mg/mL (≈ 816 mM)
- solubility at 72 h ([1]; 10% dimethylacetamide): 0.468 mg/mL (≈ 1.63 mM)
- solubility at 72 h ([1]; 10% triethanolamine): 295 mg/mL (≈ 1030 mM)
- solubility at 72 h ([1]; 20% dimethylacetamide): 1.25 mg/mL (≈ 4.34 mM)
- solubility at 72 h [1, 8]: 0.412 mg/mL (≈ 1.43 mM)
- solubility at 72 h [1, 9]: 0.663 mg/mL (≈ 2.31 mM)
- solubility at 72 h ([1]; 30% dimethylacetamide): 3.56 mg/mL (≈ 12.4 mM)
- solubility at 72 h ([1]; 40% dimethylacetamide): 9.96 mg/mL (≈ 34.6 mM)
- solubility at 72 h [1, 10]: 3.53 mg/mL (≈ 12.3 mM)
- solubility at 72 h [1, 11]: 3.06 mg/mL (≈ 10.6 mM)
- solubility at 72 h ([1]; 50% dimethylacetamide): 89.1 mg/mL (≈ 310 mM)
- solubility at 72 h ([1]; 60% dimethylacetamide): 256 mg/mL (≈ 892 mM)
- solubility at 72 h [1, 12]: 43.7 mg/mL (≈ 152 mM)
- solubility at 72 h [1, 13]: 16.3 mg/mL (≈ 56.6 mM)
- solubility at 72 h ([1]; 80% dimethylacetamide): 419 mg/mL (≈ 1460 mM)
- solubility at 72 h [1, 14]: 126 mg/mL (≈ 439 mM)
- solubility at 72 h [1, 15]: 643 mg/mL (≈ 2240 mM)
- solubility at 72 h ([1]; 100% dimethylacetamide, organic solvent or mixture): 758 mg/mL (≈ 2640 mM)
- solubility at 72 h [1, 16]: 284 mg/mL (≈ 987 mM)
- Solubility ([1]; 100% peg 400, 72 h): 3460. mg/mL
- solubility at 72 h [1, 17]: 81.7 mg/mL (≈ 284 mM)
- solubility in alcohols, dimethyl sulfoxide, propylene glycol and aqueous polyethylene glycols [6]: soluble
SMILES: CCc1cccc2c3c([nH]c12)[C@](CC)(CC(=O)O)OCC3 [S(+)-etodolac, S(+) 1,8-diethyl-1,3,4,9-tetrahydropyrano[3,4-b]indole-1-acetic acid]
- share of the effects of etodolac due to the enantiomer [7]: virtually all of the effects of etodolac are due to the S(+) enantiomer
